These results are taken from patent US20260356834A1, “ANTICONVULSIVE COMPOUNDS AND USES THEREOF” (Jazz Pharmaceuticals Research UK Limite, priority 2023, published 2026).

One data set deals with CB1. Particulars: cited from earlier work.
The conditions of data set [1]: in vivo; cited from earlier work.
For data set [2], the system named is RjOrl: Swiss mice. Particulars: 44 mA; Klein et al., 2017; cited from earlier work.
Another data set has as its system CB2 receptors. Particulars: cited from earlier work.
Data set [3] concerns RjOrl: Swiss mice. In words: mouse 6 Hz (44 mA) model of partial seizures. The data set is classed as in vivo. The note with it: for Mean Forelimb Clonus +/− SEM: score 0-2; for Change from vehicle (forelimb clonus): vs vehicle (HPMC). The text has this: The 6 Hz (44 mA) model of partial seizures, which detects anticonvulsant activity, follows that described by Brown et al. 1953.
[…] A decrease in forelimb clonus score is indicative of protection from seizure and an anticonvulsive effect.
When conducted at a 44 mA stimulus intensity in mice, the 6 Hz test can differentiate compounds with potential for the treatment of focal-onset seizures that are often resistant to current anti-epileptic drugs.
Male RjOrl: Swiss mice (Janvier Labs, 53940 Le Genest-Saint-Isle, France), 5 weeks old, weighing 27-38 g at the beginning of the experiment. Animals were acclimatized to the Test Facility for at least 5 days after delivery and randomly housed in groups of 5 to 8 in macrolon cages on wood litter with free access to food and water.
The animal house was maintained under artificial lighting (12 hours) between 7:00 and 19:00 in a controlled ambient temperature of 22±2 °C and relative humidity between 30-70%.
Before transcorneal stimulation, a drop of tetracaine solution (1%) was applied on each eye of the mouse for local anesthesia. Between 1-10 minutes later and at the designated pre-treatment (see below), the mice were administered a rectangular current (44 mA, rectangular pulse: 0.2 ms pulse width, 3 s duration, (6 Hz) via corneal electrodes connected to a constant current shock generator (Ugo Basile: type 7801).
The results for the number of seizures as reflected by forelimb clonus were recorded immediately after current administration. Forelimb clonus was scored as absent (0=no forelimb clonus), mild (1=clonus with one forelimb) and strong (2=clonus with both forelimbs). The experimenters were blinded to the treatment. […]
The administration volume was 10 mL/kg.
Due to the number of animals tested, the experiment was divided in 2 sub-experiments on 2 consecutive days with equivalent numbers of mice per group and per sub-experiment.
Data were discrete values so considered to be non-normally distributed based on validation data, therefore non-parametric tests were utilized. Quantitative data (scores) with the test substance were analyzed by comparing test compound-treated groups with the 1:2:17 vehicle control using Kruskal-Wallis test with Dunn's multiple comparisons test when the Kruskal-Wallis test was significant. Quantitative data with the reference substance were analyzed using Mann-Whitney U test as compared to saline vehicle.

Data set [4] relates to C57BL/6J mice. Kind of data set: mouse maximal electroshock seizure threshold model (MEST). The data set is classed as in vivo. Particulars: for CC50 +/− SEM: HPMC vehicle. How it is done: Vehicle=1:2:17 ethanol:Solutol® (Kolliphor® HS 15):saline: 1 mL of ethanol and 2 mL of solutol were warmed to 60 °C and 17 mL of 0.9% saline was added slowly. […]
Vehicle=0.5% HPMC and 0.1% Tween 80:0.5% HPMC and 0.1% Tween 80 in water.
Background: In the maximal electroshock model the usual endpoint is tonic extension of the hind limbs.

Data set [5] deals with C57BL/6J mice. Particulars: cited from earlier work.
The test system of data set [6] is C57BL/6J mice. The note with it: cited from earlier work. This is another data set of the same source.
A further data set relates to DBA/2 mice. Particulars: De Sarro et al., 2017; cited from earlier work.

“And” between values parts separate entries of the source, which are not always exact repeats. Equal values may be shown once. Read-outs that look alike come from different tables or passages of the source. Marks after values point to notes of the source that are not given here.

For the compound `C=C(C)[C@@H]1CCC(C)=C[C@H]1c1c(O)cc(CCCCC)cc1O` [CBD, cannabidiol], the “binding to CB1” value with CB1 is recorded as “does not bind”. In addition, in [1], the “psychotropic effects associated with cannabis” value is “does not induce the psychotropic effects”. For the same compound, in the data set on RjOrl: Swiss mice [2], the “anticonvulsive effects in the 6 Hz test” value is listed as “exhibit anticonvulsive effects”. The “binding to CB2 receptors” value in the data set on CB2 receptors is “does not bind”.

Take `CCCc1cc(O)c(-c2c(C)c(F)cn3ccnc23)c(O)c1` [Compound 11, 2-(6-Fluoro-7-methylimidazo[1,2-a]pyridin-8-yl)-5-propylbenzene-1,3-diol]: the “Mean Forelimb Clonus +/− SEM” value in the data set on RjOrl: Swiss mice [3] (25 mg/kg p.o., 15 min) turned out to be 0.85 ± 0.13; with RjOrl: Swiss mice [3] (50 mg/kg p.o., 30 min), 0.55 ± 0.11; with RjOrl: Swiss mice [3] (100 mg/kg p.o., 30 min) it was 0.80 ± 0.14; in the data set on RjOrl: Swiss mice [3] (200 mg/kg p.o., 60 min), 0.75 ± 0.12. For the same compound, the “Change from vehicle (forelimb clonus)” value was −15% in the data set with RjOrl: Swiss mice [3] (25 mg/kg p.o., 15 min); −45% in the data set with RjOrl: Swiss mice [3] (50 mg/kg p.o., 30 min); −20% with RjOrl: Swiss mice [3] (100 mg/kg p.o., 30 min); −25% with RjOrl: Swiss mice [3] (200 mg/kg p.o., 60 min). Also, the “CC50 +/− SEM” value with C57BL/6J mice [4] (5 mg/kg p.o., 15 min) is on record as 25.8 ± 1.9 mA; in the data set on C57BL/6J mice [4] (25 mg/kg p.o., 15 min), 37.5 ± 2.2 mA; with C57BL/6J mice [4] (50 mg/kg p.o., 30 min) it was 100.8 ± 3.9 mA; with C57BL/6J mice [4] (100 mg/kg p.o., 30 min), 250.0 ± 3.7 mA. Further, the “Change from vehicle (CC50)” value is −3% with C57BL/6J mice [4] (5 mg/kg p.o., 15 min, vs HPMC vehicle); 42%*** in the data set with C57BL/6J mice [4] (25 mg/kg p.o., 15 min, vs HPMC vehicle); 281%*** in the data set on C57BL/6J mice [4] (50 mg/kg p.o., 30 min, vs HPMC vehicle); 843%*** in the data set on C57BL/6J mice [4] (100 mg/kg p.o., 30 min, vs HPMC vehicle).

For `CN1C(=O)CN=C(c2ccccc2)c2cc(Cl)ccc21` [Diazepam, diazepam, reference compound], the “anticonvulsive properties in the MEST test” value in the data set on C57BL/6J mice [5] (mouse, in vivo) is given as “exhibit anticonvulsive properties”; with C57BL/6J mice [6] (mouse, in vivo), “exhibit anticonvulsive properties”. The “Change from vehicle (CC50)” value with C57BL/6J mice [4] (2.5 mg/kg i.p., 30 min, vs 1:1:18 ethanol:Kolliphor EL:saline vehicle) was 406%^###; with C57BL/6J mice [4] (2.5 mg/kg i.p., 30 min, vs 1:2:17 ethanol:Solutol:saline vehicle), 439%^###; in the data set on C57BL/6J mice [4] (2.5 mg/kg i.p., 30 min, vs HPMC vehicle), 652%*** and 526%***.

Turning to `NC(=O)N1c2ccccc2C=Cc2ccccc21` [carbamazepine], the “protection from clonic convulsions, tonic convulsions and respiratory arrest” value in the data set with DBA/2 mice is “protect DBA/2 mice from clonic convulsions, tonic convulsions and respiratory arrest”.

For picrotoxin, the seizure threshold result in the data set with C57BL/6J mice [5] (known convulsive agent) and in the data set on C57BL/6J mice [6] (known convulsive agent) was “a reduction in seizure threshold” in each case.
